Source: PMC6803673, “Molecular features of the UNC-45 chaperone critical for binding and folding muscle myosin” (Nature Communications, 2019)

Experiments:
[1] = molecular target: T1, MHC-B (myosin II heavy chain isoform B, UNC-54) motor domain (Caenorhabditis elegans, UniProt P02566); assay: X-ray crystal structure, […] A; conditions: nucleotide-binding pocket of the motor domain; crystals pH 6.5, 4 °C
T1 construct: motor domain, residues 1-790, C-terminal His6-tag, co-expressed with C. elegans UNC-45 in High Five insect cells, monomeric
T1 sequence (P02566 1-790): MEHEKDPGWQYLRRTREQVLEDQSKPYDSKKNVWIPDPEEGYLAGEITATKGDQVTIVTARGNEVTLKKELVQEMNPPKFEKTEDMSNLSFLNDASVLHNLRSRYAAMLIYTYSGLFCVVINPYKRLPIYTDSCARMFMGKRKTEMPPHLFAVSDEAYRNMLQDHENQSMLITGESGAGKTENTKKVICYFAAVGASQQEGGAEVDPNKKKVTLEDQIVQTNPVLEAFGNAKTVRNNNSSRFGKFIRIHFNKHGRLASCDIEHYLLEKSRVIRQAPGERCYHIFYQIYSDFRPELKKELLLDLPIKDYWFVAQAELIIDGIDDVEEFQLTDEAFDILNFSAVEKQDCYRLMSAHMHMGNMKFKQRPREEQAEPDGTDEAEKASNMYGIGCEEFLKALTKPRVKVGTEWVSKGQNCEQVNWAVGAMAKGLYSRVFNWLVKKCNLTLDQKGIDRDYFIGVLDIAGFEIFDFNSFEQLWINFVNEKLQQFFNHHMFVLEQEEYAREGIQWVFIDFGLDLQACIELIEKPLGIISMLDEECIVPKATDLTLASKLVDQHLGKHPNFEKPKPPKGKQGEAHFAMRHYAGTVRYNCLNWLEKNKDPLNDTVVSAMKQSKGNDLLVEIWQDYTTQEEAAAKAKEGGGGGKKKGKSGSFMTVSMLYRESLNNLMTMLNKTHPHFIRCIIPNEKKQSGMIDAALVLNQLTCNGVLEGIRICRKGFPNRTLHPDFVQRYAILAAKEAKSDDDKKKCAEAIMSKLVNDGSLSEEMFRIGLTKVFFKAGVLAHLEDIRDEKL

[2] = molecular target: T1, MHC-B (myosin II heavy chain isoform B, UNC-54) motor domain; assay: stopped-flow single turnover, intrinsic tryptophan fluorescence; format: biochemical; conditions: no actin; 20 mM MOPS pH 7.0, 25 mM KCl, 5 mM MgCl2, 20 °C
[3] = molecular target: T2, UNC-45 wild type (bacterial) (C. elegans, UniProt G5EG62 1-961); assay: SEC; myosin incubated at 27 °C for 60 min, then with UNC-45 (wild-type or ts-mutant) on ice for 60 min; S200 PC 3.2 column, 20 mM Tris pH 8.0, 150 mM NaCl; conditions: both partners purified
T2 construct: UNC-45, C. elegans myosin chaperone, wild type; also called wt UNC-45; wt chaperone; source: E. coli BL21(RIL), purified (NiNTA, anion exchange, SEC)
T2 sequence: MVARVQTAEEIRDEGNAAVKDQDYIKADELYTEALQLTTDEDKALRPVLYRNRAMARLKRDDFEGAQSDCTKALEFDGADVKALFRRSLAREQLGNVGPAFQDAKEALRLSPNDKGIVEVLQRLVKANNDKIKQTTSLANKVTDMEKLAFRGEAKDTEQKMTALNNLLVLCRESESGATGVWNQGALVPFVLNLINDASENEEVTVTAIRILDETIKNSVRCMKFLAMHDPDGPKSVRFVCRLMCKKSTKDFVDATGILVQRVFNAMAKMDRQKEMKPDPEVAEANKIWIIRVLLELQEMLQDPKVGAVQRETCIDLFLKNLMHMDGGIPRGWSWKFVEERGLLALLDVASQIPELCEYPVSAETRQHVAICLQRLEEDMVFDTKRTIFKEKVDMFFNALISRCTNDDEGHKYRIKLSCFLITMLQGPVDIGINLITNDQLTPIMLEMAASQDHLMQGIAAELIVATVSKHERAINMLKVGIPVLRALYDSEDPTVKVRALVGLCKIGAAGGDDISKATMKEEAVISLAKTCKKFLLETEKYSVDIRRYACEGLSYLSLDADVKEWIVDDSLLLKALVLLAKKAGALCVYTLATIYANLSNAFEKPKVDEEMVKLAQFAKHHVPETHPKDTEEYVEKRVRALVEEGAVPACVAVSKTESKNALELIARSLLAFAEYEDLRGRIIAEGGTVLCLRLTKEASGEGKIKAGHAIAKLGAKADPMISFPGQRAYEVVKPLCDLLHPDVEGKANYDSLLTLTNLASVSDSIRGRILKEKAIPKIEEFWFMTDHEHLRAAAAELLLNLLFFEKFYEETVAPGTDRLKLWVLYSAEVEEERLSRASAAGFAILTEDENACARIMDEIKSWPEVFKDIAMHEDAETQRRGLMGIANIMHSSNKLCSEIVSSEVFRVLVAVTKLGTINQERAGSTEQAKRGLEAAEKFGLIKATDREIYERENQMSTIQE

[4] = molecular target: the molecule itself; assay: crystal structure; UNC-45 mutant crystals grown by sitting drop vapor diffusion at 19 °C

Molecule: Nc1ncnc2c1ncn2[C@@H]1O[C@H](COP(=O)(O)OP(=O)(O)O)[C@@H](O)[C@H]1O [ADP]
- X-ray crystal structure, 1.9 A [1]: we crystallized MHC-B and determined the structure of the ADP-bound state

Molecule: Nc1ncnc2c1ncn2[C@@H]1O[C@H](COP(=O)(O)OP(=O)(O)OP(=O)(O)O)[C@@H](O)[C@H]1O [ATP]
- stopped-flow single turnover, intrinsic tryptophan fluorescence [2]: Upon ATP binding to the myosin motor domain Trp fluorescence is enhanced

B1: MHC-B muscle myosin motor domain (residues 1–790) (domain or fragment, C. elegans, UniProt P02566 1-790, looked up)
chain: MEHEKDPGWQYLRRTREQVLEDQSKPYDSKKNVWIPDPEEGYLAGEITATKGDQVTIVTARGNEVTLKKELVQEMNPPKFEKTEDMSNLSFLNDASVLHNLRSRYAAMLIYTYSGLFCVVINPYKRLPIYTDSCARMFMGKRKTEMPPHLFAVSDEAYRNMLQDHENQSMLITGESGAGKTENTKKVICYFAAVGASQQEGGAEVDPNKKKVTLEDQIVQTNPVLEAFGNAKTVRNNNSSRFGKFIRIHFNKHGRLASCDIEHYLLEKSRVIRQAPGERCYHIFYQIYSDFRPELKKELLLDLPIKDYWFVAQAELIIDGIDDVEEFQLTDEAFDILNFSAVEKQDCYRLMSAHMHMGNMKFKQRPREEQAEPDGTDEAEKASNMYGIGCEEFLKALTKPRVKVGTEWVSKGQNCEQVNWAVGAMAKGLYSRVFNWLVKKCNLTLDQKGIDRDYFIGVLDIAGFEIFDFNSFEQLWINFVNEKLQQFFNHHMFVLEQEEYAREGIQWVFIDFGLDLQACIELIEKPLGIISMLDEECIVPKATDLTLASKLVDQHLGKHPNFEKPKPPKGKQGEAHFAMRHYAGTVRYNCLNWLEKNKDPLNDTVVSAMKQSKGNDLLVEIWQDYTTQEEAAAKAKEGGGGGKKKGKSGSFMTVSMLYRESLNNLMTMLNKTHPHFIRCIIPNEKKQSGMIDAALVLNQLTCNGVLEGIRICRKGFPNRTLHPDFVQRYAILAAKEAKSDDDKKKCAEAIMSKLVNDGSLSEEMFRIGLTKVFFKAGVLAHLEDIRDEKL
notes: C. elegans body wall muscle myosin II heavy chain isoform B (MHC-B, UNC-54), motor domain, residues 1-790, cloned from C. elegans cDNA; In the SEC assays with UNC-45 the protein was heat-damaged (unfolded or misfolded) at 27 °C; Two vectors (pFastBac DUAL, pACEBac1) encode the same 1-790 His6 protein; also called myosin II heavy chain isoform B; UNC-54; source: High Five insect cells, …
- binding result [3]: binds

B2: UNC-45 G427E (ts mutant, bacterial) (natural protein, C. elegans, UniProt G5EG62 1-961, looked up)
chain: MVARVQTAEEIRDEGNAAVKDQDYIKADELYTEALQLTTDEDKALRPVLYRNRAMARLKRDDFEGAQSDCTKALEFDGADVKALFRRSLAREQLGNVGPAFQDAKEALRLSPNDKGIVEVLQRLVKANNDKIKQTTSLANKVTDMEKLAFRGEAKDTEQKMTALNNLLVLCRESESGATGVWNQGALVPFVLNLINDASENEEVTVTAIRILDETIKNSVRCMKFLAMHDPDGPKSVRFVCRLMCKKSTKDFVDATGILVQRVFNAMAKMDRQKEMKPDPEVAEANKIWIIRVLLELQEMLQDPKVGAVQRETCIDLFLKNLMHMDGGIPRGWSWKFVEERGLLALLDVASQIPELCEYPVSAETRQHVAICLQRLEEDMVFDTKRTIFKEKVDMFFNALISRCTNDDEGHKYRIKLSCFLITMLQEPVDIGINLITNDQLTPIMLEMAASQDHLMQGIAAELIVATVSKHERAINMLKVGIPVLRALYDSEDPTVKVRALVGLCKIGAAGGDDISKATMKEEAVISLAKTCKKFLLETEKYSVDIRRYACEGLSYLSLDADVKEWIVDDSLLLKALVLLAKKAGALCVYTLATIYANLSNAFEKPKVDEEMVKLAQFAKHHVPETHPKDTEEYVEKRVRALVEEGAVPACVAVSKTESKNALELIARSLLAFAEYEDLRGRIIAEGGTVLCLRLTKEASGEGKIKAGHAIAKLGAKADPMISFPGQRAYEVVKPLCDLLHPDVEGKANYDSLLTLTNLASVSDSIRGRILKEKAIPKIEEFWFMTDHEHLRAAAAELLLNLLFFEKFYEETVAPGTDRLKLWVLYSAEVEEERLSRASAAGFAILTEDENACARIMDEIKSWPEVFKDIAMHEDAETQRRGLMGIANIMHSSNKLCSEIVSSEVFRVLVAVTKLGTINQERAGSTEQAKRGLEAAEKFGLIKATDREIYERENQMSTIQE
notes: UNC-45, C. elegans, temperature-sensitive point mutant G427E; the SEC assays used the native protein; also called tsG427E; source: E. coli BL21(RIL), purified (NiNTA, anion exchange, SEC); SeMet protein from B834-DE3 cells
- binding result [4]: binds
